Data reported in patent publication US20110244496A1, “HIV REVERSE TRANSCRIPTASE COMPOSITIONS AND METHODS” (priority 2007, published 2011).
Like-named read-outs stand apart in the source and are kept apart here.

Key:
HIV-1 = settings: antiretroviral naïve patients; once daily 25, 50, 100, or 150 mg for seven days; day 8 versus before initial dosage; Goebel et al., 2006; cited from earlier work
[1] = Goebel et al., 2006, cited from earlier work
[2] = patients given TMC278 once daily for seven days; Goebel et al., 2006; cited from earlier work
[3] = molecular target: T1, Lys103Asn/Tyr181Cys double mutant RT (Human immunodeficiency virus type 1 group M subtype B, UniProt P03366, K702N/Y780C); settings: cited from earlier work
T1 construct: RT is a heterodimer consisting of a p66 and p51 subunit

[4] = molecular target: T1, Lys103Asn/Tyr181Cys double mutant RT; experiment: EC50 of TMC278 against K103N/Y181C double mutant; assay type: cell-based, HIV-1; settings: Example 4
K103N RT mutant = molecular target: T2, K103N RT mutant (Human immunodeficiency virus type 1 group M subtype B, UniProt P03366, K702N); experiment: EC50 of TMC278 against K103N mutant; assay type: cell-based, HIV-1; settings: Example 4
T2 construct: RT is a heterodimer consisting of a p66 and p51 subunit

wild-type RT = molecular target: T3, wild-type RT (Human immunodeficiency virus type 1 group M subtype B, UniProt P03366); settings: cited from earlier work
T3 construct: RT is a heterodimer consisting of a p66 and p51 subunit

Y181C RT mutant = molecular target: T4, Y181C RT mutant (Human immunodeficiency virus type 1 group M subtype B, UniProt P03366, Y780C); experiment: EC50 of TMC278 against Y181C mutant; assay type: cell-based, HIV-1; settings: Example 4
T4 construct: RT is a heterodimer consisting of a p66 and p51 subunit

[5] = molecular target: T5, Leu100Ile/Lys103Asn double mutant RT (Human immunodeficiency virus type 1 group M subtype B, UniProt P03366, K702N/L699I); settings: cited from earlier work
T5 construct: RT is a heterodimer consisting of a p66 and p51 subunit

[6] = molecular target: T5, Leu100Ile/Lys103Asn double mutant RT; experiment: EC50 of TMC278 against L100I/K103N double mutant; assay type: cell-based, HIV-1; settings: Example 4 (Table 1, not given)

## rilpivirine [TMC278]
HIV-1
  average decrease of HIV-1 RNA viral load: 1.199 log10 copies/ml
[1]; at any of the time points tested, target concentration 13.5 ng/ml
  plasma concentrations of TMC278: ≥ 13.5 ng/mL
[1]; patients, once daily dosage
  Bioavailability: excellent
[2]
  headaches reported, patients: 14%
[3]; K103N and Y181C (RT55A mutations), de Bethune et al. online poster 2005
  EC50: 1.7 nM
[3]; Lys103Asn/Tyr181Cys double mutant, Guillemont et al., 2005, Janssen et al
  EC50: 1 nM
[4]
  EC50: < 1 nM
K103N RT mutant
  EC50: < 1 nM
wild-type RT; Example 2, read-out: EC50 (the 50% effective concentration)
  EC50: 0.4 nM
wild-type RT; de Bethune et al. online poster 2005, read-out: EC50
  EC50: 0.51 nM
Y181C RT mutant
  EC50: < 1 nM
[5]; L100I and K103N (RT51A mutations), de Bethune et al. online poster 2005, read-out: EC50
  EC50: 2.7 nM
[5]; double mutant Leu100Ile/Lys103Asn, Example 2, read-out: EC50 (the 50% effective concentration)
  EC50: 7 nM
[6]
  EC50: ~8 nM
